According to ChEMBL document CHEMBL1129506, “2,4-Diarylpyrrolidine-3-carboxylic acids--potent ETA selective endothelin receptor antagonists. 1. Discovery of A-127722” (J Med Chem, 1996):

Assays:
[1] = target: T1, Endothelin receptor type B (Sus scrofa, UniProt P35463); assay: Inhibitory activity measured against Endothelin B receptor binding to porcine cerebellum; type: tissue-based
T1 sequence (P35463 whole entry): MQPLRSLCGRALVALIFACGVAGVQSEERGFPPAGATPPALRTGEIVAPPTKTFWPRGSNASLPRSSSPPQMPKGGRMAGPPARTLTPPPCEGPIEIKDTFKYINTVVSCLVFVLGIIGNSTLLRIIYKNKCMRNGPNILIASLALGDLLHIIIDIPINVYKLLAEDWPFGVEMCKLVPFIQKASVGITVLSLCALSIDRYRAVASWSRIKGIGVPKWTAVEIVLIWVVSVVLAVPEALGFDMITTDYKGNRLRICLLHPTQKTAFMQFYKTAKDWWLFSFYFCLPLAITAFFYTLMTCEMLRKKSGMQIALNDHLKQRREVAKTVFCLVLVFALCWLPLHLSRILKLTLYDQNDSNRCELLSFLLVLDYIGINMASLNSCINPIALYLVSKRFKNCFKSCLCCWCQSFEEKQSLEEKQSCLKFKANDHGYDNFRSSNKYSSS

Endothelin-1 receptor [2] = target: T2, Endothelin-1 receptor (Rattus norvegicus, UniProt P26684); assay: Inhibitory activity against the Endothelin A receptor of rat MMQ cells; type: cell-based
T2 sequence (P26684 whole entry): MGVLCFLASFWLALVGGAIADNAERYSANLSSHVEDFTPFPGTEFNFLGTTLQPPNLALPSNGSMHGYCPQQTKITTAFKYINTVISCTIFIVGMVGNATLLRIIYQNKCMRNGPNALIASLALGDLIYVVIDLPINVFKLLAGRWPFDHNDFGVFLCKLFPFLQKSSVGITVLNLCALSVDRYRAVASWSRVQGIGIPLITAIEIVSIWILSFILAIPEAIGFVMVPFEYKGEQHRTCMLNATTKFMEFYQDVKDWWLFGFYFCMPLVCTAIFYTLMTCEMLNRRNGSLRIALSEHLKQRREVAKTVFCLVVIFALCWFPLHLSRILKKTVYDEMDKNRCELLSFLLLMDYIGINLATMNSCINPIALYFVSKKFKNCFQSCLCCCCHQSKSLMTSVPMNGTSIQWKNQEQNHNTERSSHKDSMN

Endothelin-1 receptor [3] = target: T3, Endothelin-1 receptor (Homo sapiens, UniProt P25101); assay: Radioligand binding selectivity to human Endothelin A receptor in chinese hamster ovary cells; type: cell-based, CHO
T3 sequence (P25101 whole entry): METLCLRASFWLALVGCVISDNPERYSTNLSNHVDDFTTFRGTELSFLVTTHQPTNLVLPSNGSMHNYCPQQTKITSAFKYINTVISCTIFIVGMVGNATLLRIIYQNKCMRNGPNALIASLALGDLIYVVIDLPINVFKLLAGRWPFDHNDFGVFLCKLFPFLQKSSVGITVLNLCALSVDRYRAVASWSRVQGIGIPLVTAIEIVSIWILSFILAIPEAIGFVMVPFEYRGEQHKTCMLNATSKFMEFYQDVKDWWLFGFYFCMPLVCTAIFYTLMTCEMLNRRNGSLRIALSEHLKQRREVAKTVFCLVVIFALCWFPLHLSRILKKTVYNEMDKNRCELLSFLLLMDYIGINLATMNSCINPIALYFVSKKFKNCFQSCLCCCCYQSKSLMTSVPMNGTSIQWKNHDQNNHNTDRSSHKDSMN

Endothelin receptor = target: T4, Endothelin receptor (Rattus norvegicus, UniProt P26684+P21451); assay: Inhibition of phosphoinositol hydrolysis of MMQ cells.; type: functional, cell-based
T4 sequence (P26684 whole entry): T2 sequence (P26684 whole entry)
T4 sequence (P21451 whole entry): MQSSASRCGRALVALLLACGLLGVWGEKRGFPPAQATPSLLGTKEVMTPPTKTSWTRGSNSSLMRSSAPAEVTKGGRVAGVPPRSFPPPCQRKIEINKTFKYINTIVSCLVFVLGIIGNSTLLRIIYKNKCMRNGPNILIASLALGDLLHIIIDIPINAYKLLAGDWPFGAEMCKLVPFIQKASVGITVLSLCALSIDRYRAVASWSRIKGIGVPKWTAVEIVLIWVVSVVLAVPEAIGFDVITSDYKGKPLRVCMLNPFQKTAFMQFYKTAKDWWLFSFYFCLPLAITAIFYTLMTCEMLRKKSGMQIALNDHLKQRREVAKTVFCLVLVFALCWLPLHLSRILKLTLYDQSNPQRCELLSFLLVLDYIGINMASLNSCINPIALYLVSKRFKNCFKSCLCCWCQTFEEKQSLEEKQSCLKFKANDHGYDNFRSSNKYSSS

[4] = target: T5, Endothelin receptor type B (Homo sapiens, UniProt P24530); assay: Radioligand binding selectivity to human Endothelin B receptor in chinese hamster ovary cells; type: cell-based, CHO
T5 sequence (P24530 whole entry): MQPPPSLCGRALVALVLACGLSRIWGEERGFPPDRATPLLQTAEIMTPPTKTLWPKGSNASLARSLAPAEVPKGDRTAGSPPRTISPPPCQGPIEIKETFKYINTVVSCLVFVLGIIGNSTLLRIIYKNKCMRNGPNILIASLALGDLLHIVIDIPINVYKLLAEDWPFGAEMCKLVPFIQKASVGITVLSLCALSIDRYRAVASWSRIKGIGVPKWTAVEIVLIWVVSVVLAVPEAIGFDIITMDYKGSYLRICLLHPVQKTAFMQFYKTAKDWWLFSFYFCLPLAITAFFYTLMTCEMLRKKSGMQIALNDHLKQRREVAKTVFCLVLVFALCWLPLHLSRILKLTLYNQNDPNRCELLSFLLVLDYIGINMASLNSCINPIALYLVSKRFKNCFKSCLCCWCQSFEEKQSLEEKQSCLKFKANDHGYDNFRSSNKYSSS

[5] = target: T1, Endothelin receptor type B; assay: Inhibitory activity was measured against Endothelin B receptor binding to porcine cerebellum; inactive; type: tissue-based
[6] = target: T5, Endothelin receptor type B; assay: Inhibitory activity against human Endothelin B receptor in chinese hamster ovary cells; type: cell-based, CHO
Endothelin-1 receptor [7] = target: T3, Endothelin-1 receptor; assay: Inhibitory activity against human Endothelin A receptor in chinese hamster ovary cells; type: cell-based, CHO

For `CCCN(C)C(=O)CN1C[C@@H](c2ccc3c(c2)OCO3)[C@H](C(=O)O)[C@H]1c1ccc(OC)cc1`, the IC50 [1] was 2900 nM, the IC50 (Endothelin-1 receptor [2]) was 6.63 nM and the IC50 (Endothelin-1 receptor [3]) was 21.3 nM. The IC50 (Endothelin receptor) was 9.12 nM and the IC50 [4] was 4570 nM.

For `CCCCN(C)C(=O)CN1C[C@@H](c2ccc3c(c2)OCO3)[C@H](C(=O)O)[C@H]1c1ccc(OC)cc1`, the IC50 [1] was 1390 nM, the IC50 (Endothelin-1 receptor [2]) was 4.71 nM and the IC50 (Endothelin-1 receptor [3]) was 4.88 nM. It also gave an IC50 (Endothelin receptor) of 0.97 nM and an IC50 [4] of 1080 nM.

In the case of `CCCCNC(=O)CN1C[C@@H](c2ccc3c(c2)OCO3)[C@H](C(=O)O)[C@H]1c1ccc(OC)cc1`, the IC50 [1] is reported as 1260 nM, the IC50 (Endothelin-1 receptor [2]) is reported as 43 nM and the IC50 (Endothelin receptor) is reported as 10 nM.

With `CCCCN(CCCC)C(=O)CN1CC(c2ccc3c(c2)OCO3)C(C(N)=O)C1c1ccc(OC)cc1` (centres undefined) the IC50 (Endothelin-1 receptor [2]) was 58 nM and the IC50 [5] was “Not Active”.

`CCCN(CCC)C(=O)CN1C[C@@H](c2ccc3c(c2)OCO3)[C@H](C(=O)O)[C@H]1c1ccc(OC)cc1` showed an IC50 [1] of 598 nM, an IC50 (Endothelin-1 receptor [3]) of 0.55 nM and an IC50 (Endothelin receptor) of 0.24 nM. The IC50 [4] was 397 nM.

Work on `CCCNC(=O)CN1C[C@@H](c2ccc3c(c2)OCO3)[C@H](C(=O)O)[C@H]1c1ccc(OC)cc1` yielded an IC50 [1] of 398 nM, an IC50 (Endothelin-1 receptor [2]) of 17.2 nM and an IC50 (Endothelin-1 receptor [3]) of 45.3 nM. The IC50 (Endothelin receptor) was 24.6 nM and the IC50 [4] was 579 nM.

`COCCN(CCOC)C(=O)CN1C[C@@H](c2ccc3c(c2)OCO3)[C@H](C(=O)O)[C@H]1c1ccc(OC)cc1` showed an IC50 [1] of 1070 nM, an IC50 (Endothelin-1 receptor [2]) of 4.45 nM and an IC50 (Endothelin receptor) of 4.91 nM.

Work on `CCCCN(CCC)C(=O)CN1C[C@@H](c2ccc3c(c2)OCO3)[C@H](C(=O)O)[C@H]1c1ccc(OC)cc1` yielded an IC50 [1] of 40 nM, an IC50 (Endothelin-1 receptor [2]) of 0.22 nM and an IC50 (Endothelin-1 receptor [3]) of 0.81 nM. For the same compound, the IC50 (Endothelin receptor) was 0.25 nM and the IC50 [4] was 211 nM.

Work on `C=CCNC(=O)CN1C[C@@H](c2ccc3c(c2)OCO3)[C@H](C(=O)O)[C@H]1c1ccc(OC)cc1` yielded an IC50 [1] of 889 nM, an IC50 (Endothelin-1 receptor [2]) of 34.2 nM and an IC50 (Endothelin receptor) of 16.5 nM.

`Cc1noc(NS(=O)(=O)c2cccc3c(N(C)C)cccc23)c1C` [BMS-182874] was tested, and the Ki [6] was > 50000 nM.

Work on `CCCc1cc(C(=O)O)ccc1OC(C(=O)NS(=O)(=O)c1ccc(C(C)C)cc1)c1ccc2c(c1)OCO2` [L-754142] yielded a Ki (Endothelin-1 receptor [7]) of 0.13 nM and a Ki [6] of 5.4 nM.

With `COc1ccc(C2(O)OC(=O)C(c3ccc4c(c3)OCO4)=C2Cc2cc(OC)c(OC)c(OC)c2)cc1` (centres undefined) [PD-156707] the Ki [6] was 139 nM.
